We go through one compound from article PMC6285983, “Novel broad spectrum virucidal molecules against enveloped viruses” (PLoS ONE, 2018).

What is called CC50 is the concentration giving 50% cytotoxicity. A lower CC50 goes with greater toxicity to the cells. Usually EC50 stands for the concentration giving half of the maximal effect. One may read the EC90 as the concentration at which the effect reaches the 90% level. A word on the melting point: it is the temperature, or range, at which the solid turns liquid.

SMILES strings stand for the structures.

One series deals with HRoV. Description: HRoV inhibition assay on MA104 cells. The class given is cell-based, Human rotavirus strain Wa. The protocol: MA104 cell were plated in 96-well trays. The following day virus infectivity was activated by adding 5 μg porcine trypsin (Sigma)/mL for 30 min at 37°C. […] After 16 h, cells were fixed with cold acetone–methanol and viral titers were determined by indirect immunostaining using the monoclonal antibody mab-0036 (specific for human 41 kDa inner capsid protein–VP6 –of rotavirus) purchased from Covalab (Villeurbanne, France) and the UltraTech HRP Streptavidin-Biotin Detection System (Beckman Colter).

Series [1] in a line: Cell viability MTS assay, conditions of the RSV assay. The class given is cell-based. Conditions: human, Hep-2 cells. The protocol:
(§1) Cell viability was measured using the MTS [3- (4,5-dimethylthiazol-2-yl)-5- (3 carboxy methoxy phenyl)-2-(4-sulfophenyl)-2H-tetrazolium] assay. Cell cultures were seeded in 96-well plates and were incubated with different concentrations of compounds in duplicate under the same experimental conditions described for the antiviral assays, (i.e. if the incubation time of the compound on cells was carried for 2 hours and then the evaluation of the antiviral activity was done 72h later, the same timing was used for the cytotoxicity assays, in order to exclude any toxicity effect in the antiviral evaluation). Cell viability was determined using the CellTiter 96 Proliferation Assay Kit (Promega, Madison, WI, USA) according to the manufacturer's instructions. Absorbances were measured using a Microplate Reader (Model 680, BIORAD) at 490 nm. The effect on cell viability at different concentrations of the compound was expressed as a percentage, by comparing absorbances of treated cells with those of cells incubated with culture medium and equal volumes of vehicle. The 50% cytotoxic concentrations (CC50) and 95% confidence intervals (CIs) were determined using Prism software (Graph-Pad Software, San Diego, CA). For compound 9d a continuous incubation of 1, 2, 3 and 4 days on Vero cells was carried in order to evaluate the toxicity after long exposure the results are shown in S1 Fig and Fig 3. […]
In general terms: Formazan colour is commonly taken as a measure of viable cells.

Series [2] in a line: Cell viability MTS assay, conditions of the HCMV assay. Conditions: human, HELF cells. The class given is cell-based. The protocol:
as §1, with “vehicle.” for “vehicle. The 50% cytotoxic concentrations (CC50) and 95% confidence intervals (CIs) were determined using Prism software (Graph-Pad Software, San Diego, CA). For compound 9d a continuous incubation of 1, 2, 3 and 4 days on Vero cells was carried in order to evaluate the toxicity after long exposure the results are shown in S1 Fig and Fig 3.”
(§2) HELF cells were pre-plated in a 96-well plate. […] After five days incubation, cells were observed under an inverted Zeiss LSM510 fluorescence microscope (Zeiss, Oberkochen, Germany) and the percentages of infection were calculated by comparing GFP positive cells in treated and untreated wells.

The subject of series [3] is HSV-2. The series can be described thus: Time of addition: during infection, no preincubation. Conditions: Human alphaherpesvirus 2; during-infection assay, virus and compound added simultaneously. The class given is cell-based.
The test system of series [4] is HSV-2. Description: HSV-2 plaquing efficiency assay, compound preincubated with virus 1 h at 37°C. Type of series: cell-based. Conditions: Human alphaherpesvirus 2, HSV-2, Vero cells, 1 h pre-incubation virus/compound.
A further series relates to ZIKV. Description: ZIKV plaquing efficiency assay. The class given is cell-based, Zika virus (PRVABC59). Conditions: Zika virus, ZIKAV.
A further series deals with HCMV. Description: HCMV inhibition assay on HELF cells. Type of series: cell-based, HCMV strain Towne. Conditions: Human betaherpesvirus 5, HELF. The procedure:
as §2

The subject of series [5] is HSV-2. The series can be described thus: Entry assay. Type of series: cell-based. Conditions: 10 μM, HSV-2 MOI 10. The procedure:
Since the observed irreversible effect can be exerted at different stages of viral infection, we investigated more in detail if compound 9d produced a physical disruption of the virus, thus preventing its attachment to the cells or a successive irreversible modification. We performed entry and binding assays, evaluating the amount of bound virus through immunostaining or qPCR. […] On the contrary, when entry assays were performed, it was possible to observe a reduction in the amount of virus associated to the cells (Fig 7D). With this assay, the signal from the virus could be related to virus in the cytoplasm or blocked in the endosomes, since the treatment with acidic glycine is affecting only the virus at the surface of the cell. […]
(§3) Cells were plated on coverslips and the following day the binding or entry protocol described above was applied. […] Rhodamine conjugated anti-rabbit (Santa Cruz) was then added on cells for 1 h at 37°C following 3 washes coverslips were mounted on microscope glasses and observed with Zeiss LSM510 fluorescence microscope (Zeiss, Oberkochen, Germany) and images were acquired.

Series [6] in a line: In vitro lipoperoxidation test (TBA assay, MDA). Conditions: DPPC liposomes, 37°C, 30 minutes.
A short description of series [7]: Cell viability MTS assay on Vero cells. Conditions: African green monkey.
Series [8] concerns HSV-2. Description: Binding assay (qPCR, immunostaining, IF). The class given is cell-based. Conditions: 10 μM, HSV-2 MOI 10, 2 h on Vero cells at 4°C. The protocol: Since the observed irreversible effect can be exerted at different stages of viral infection, we investigated more in detail if compound 9d produced a physical disruption of the virus, thus preventing its attachment to the cells or a successive irreversible modification. We performed entry and binding assays, evaluating the amount of bound virus through immunostaining or qPCR. […] On the contrary, when entry assays were performed, it was possible to observe a reduction in the amount of virus associated to the cells (Fig 7D). […]
as §3
Cells subjected to binding assays were then lysed and subjected to total DNA/RNA extraction and subsequently subjected to qPCR using as primers 5’- […] -3’ and 5’-[…] -3’ and as probe 5’-FAM […] -TAMRA for 40 cycles at 94°C for 15” followed by 60°C for 60”. The results were normalized according to values of rnasep and the % of bound virus were measured comparing the Δct of treated wells to wells treated with equal volume of solvent.
(Quantitative PCR measures a nucleic acid by following its amplification.)

In another series the test system is VSV. The series can be described thus: microbe, parasite or virus in culture. The class given is cell-based. Conditions: Vesicular stomatitis virus.

Regarding `CC(C)c1ccc(CCN2C(=O)/C(=C/c3ccc(-c4ccc(C(=O)O)c(O)c4)o3)SC2=S)cc1` [Compound 9d, (Z)-2-hydroxy-4-(5-((3-(4-isopropylphenethyl)-4-oxo-2-thioxothiazolidin-5-ylidene)methyl)furan-2-yl)benzoic acid], the melting point is 259 °C (dec.). In the series with HRoV, the “antiviral activity against non-enveloped virus” value is “inactive”. The half-maximal cytotoxic concentration (CC50) at 3 h in series [1] is 17000 nM. Moreover, the CC50 at 3 h in series [2] is 5240 nM. This compound came in with a concentration for a half-maximal effect (EC50) in the series on HSV-2 [3] of 147 nM. The 50% effective concentration (EC50) with HSV-2 [4] (plaques at 24 h, read-out: EC50 (95% C.I.)) was determined as 6.55 nM. Besides, in the series on HSV-2 [4] (read-out: EC90 (95% C.I.)), the concentration for an effect of 90% (EC90) is 40 nM. In the series on ZIKV (read-out: EC50 (95% C.I.)), the EC50 is 69.9 nM. The EC90 with ZIKV (read-out: EC90 (95% C.I.)) worked out at 147 nM. Also, in the series on HCMV (read-out: EC50 (95% C.I.)), the concentration giving a half-maximal response (EC50) was 4.22 nM. The EC90 with HCMV (read-out: EC90 (95% C.I.)) came to 31.3 nM. In addition, in the series with HSV-2 [5], the “amount of virus associated to the cells” value is listed as “reduction”. In addition, the “lipid peroxidation of linoleic acid (MDA)” value in series [6] is “remarkable lipid peroxidation”. The compound further returned a CC50 in series [7] (CC50, Vero cells, MTS) of 2090 nM. In [7] (CC50, Vero cells, after 96h exposure), this compound came in with a cytotoxic concentration (CC50) at 96 h of 2090 nM. Moreover, the CC50 in [7] (CC50, conditions of HSV-1 assay) was 2090 nM. This compound also came in with a CC50 in series [7] (CC50, conditions of HSV-2 acyclovir resistant assay) of 2090 nM. For the same compound, in series [7] (CC50, conditions of ZIKAV assay), the half-maximal cytotoxic concentration (CC50) is 8850 nM. In addition, the viral binding capability entry with HSV-2 [8] was “not altering viral binding capability”. Moreover, the EC50 in the series on VSV (read-out: EC50 (95% C.I.)) is 13.2 nM. The 90% effect concentration (EC90) with VSV (read-out: EC90 (95% C.I.)) amounted to 117 nM.
